{
  "source": "ChEMBL document CHEMBL1138643",
  "about": "“Haloperidol: towards further understanding of the structural contributions of its pharmacophoric elements at D2-like receptors” (Bioorg Med Chem Lett, 2004)",
  "key": {"[1]": {"experiment": "Binding affinity for dopamine D2 receptor to that of dopamine D4 receptor"}, "[2]": {"experiment": "Binding affinity for dopamine D3 receptor"}, "D(4) dopamine receptor": {"target": "T1, D(4) dopamine receptor (Homo sapiens, UniProt P21917)", "T1 sequence (P21917 whole entry)": "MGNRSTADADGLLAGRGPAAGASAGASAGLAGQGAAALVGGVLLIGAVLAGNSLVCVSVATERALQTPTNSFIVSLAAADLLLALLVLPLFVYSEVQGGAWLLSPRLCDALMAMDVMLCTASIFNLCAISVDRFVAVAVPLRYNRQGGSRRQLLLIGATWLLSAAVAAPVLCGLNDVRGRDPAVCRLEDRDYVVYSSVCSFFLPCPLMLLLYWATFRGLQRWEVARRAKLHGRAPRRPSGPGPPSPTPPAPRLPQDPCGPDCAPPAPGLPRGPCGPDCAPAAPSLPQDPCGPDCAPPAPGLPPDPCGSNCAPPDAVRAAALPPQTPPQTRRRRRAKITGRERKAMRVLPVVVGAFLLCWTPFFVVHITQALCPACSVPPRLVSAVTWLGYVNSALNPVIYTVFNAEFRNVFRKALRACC", "experiment": "Binding affinity for dopamine D4 receptor"}, "D(2) dopamine receptor": {"target": "D(2) dopamine receptor (Homo sapiens, UniProt P14416)", "sequence (P14416 whole entry)": "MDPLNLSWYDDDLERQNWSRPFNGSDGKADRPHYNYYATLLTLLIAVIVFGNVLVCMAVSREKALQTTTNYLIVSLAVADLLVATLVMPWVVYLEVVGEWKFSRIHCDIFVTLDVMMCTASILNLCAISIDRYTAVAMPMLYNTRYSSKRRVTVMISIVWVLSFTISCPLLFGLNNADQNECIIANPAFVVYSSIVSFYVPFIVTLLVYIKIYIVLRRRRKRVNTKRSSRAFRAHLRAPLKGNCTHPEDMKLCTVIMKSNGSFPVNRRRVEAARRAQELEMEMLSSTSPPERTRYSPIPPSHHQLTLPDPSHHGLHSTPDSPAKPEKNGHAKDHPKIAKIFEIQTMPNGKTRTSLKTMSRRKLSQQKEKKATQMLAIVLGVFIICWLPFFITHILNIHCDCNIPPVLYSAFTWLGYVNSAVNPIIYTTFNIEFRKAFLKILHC"}},
  "data": [
    {"smiles": "O=C(CCCN1C2CCC1CC(O)(c1ccc(Cl)cc1)C2)c1ccc(F)cc1", "note": "(stereo not drawn)", "values": [
      {"measurement": "Ratio", "setting": "[1]", "value": 0.03}
    ]},
    {"smiles": "O=C(CCCN1CCC(c2ccc(Cl)cc2)CC1)c1ccc(F)cc1", "values": [
      {"measurement": "Ki", "setting": "[2]", "value": 46, "unit": "nM"}
    ]},
    {"smiles": "O=C(CCCN1CCN(c2ccc(Cl)cc2)CC1)c1ccc(F)cc1", "values": [
      {"measurement": "Ki", "setting": "D(4) dopamine receptor", "value": 17.5, "unit": "nM"}
    ]},
    {"smiles": "O=C(CCCN1C2CCC1CC(O)(c1ccccc1)C2)c1ccc(F)cc1", "note": "(stereo not drawn)", "values": [
      {"measurement": "Ki", "setting": "[2]", "value": 3.2, "unit": "nM"},
      {"measurement": "Ki", "setting": "D(4) dopamine receptor", "value": 19.1, "unit": "nM"}
    ]},
    {"smiles": "O=C(CCCN1C2CCC1CC(c1ccccc1)C2)c1ccc(F)cc1", "note": "(stereo not drawn)", "values": [
      {"measurement": "Ki", "setting": "[2]", "value": 51.4, "unit": "nM"},
      {"measurement": "Ratio", "setting": "[1]", "value": 0.7},
      {"measurement": "Ki", "setting": "D(4) dopamine receptor", "value": 177, "unit": "nM"}
    ]},
    {"smiles": "O=C(CN1C2CCC1CC(O)(c1ccc(Cl)cc1)C2)c1ccc(F)cc1", "note": "(stereo not drawn)", "values": [
      {"measurement": "Ki", "setting": "[2]", "value": "> 10000", "unit": "nM"}
    ]},
    {"smiles": "O=C(CCCN1C2CCC1CC(c1ccc(Cl)cc1)C2)c1ccc(F)cc1", "note": "(stereo not drawn)", "values": [
      {"measurement": "Ki", "setting": "D(2) dopamine receptor", "value": 190, "unit": "nM"},
      {"measurement": "Ki", "setting": "[2]", "value": 222, "unit": "nM"},
      {"measurement": "Ratio", "setting": "[1]", "value": 0.6},
      {"measurement": "Ki", "setting": "D(4) dopamine receptor", "value": 345, "unit": "nM"}
    ]}
  ]
}
